Test results as given in US20240108006A1, “PESTICIDALLY ACTIVE HETEROAROMATIC COMPOUNDS” (SYNGENTA CROP PROTECTION AG, priority 2021, published 2024).

What was measured:
Type in all cases: in vivo
Myzus persicae [1] = assay: Example B7: Myzus persicae (green peach aphid), intrinsic activity, sucrose solution 24-well; details: 120 h, application rate of 12.5 ppm, 5 days after infestation, read-out: control (mortality)
From the text: Example B7: Myzus persicae (Green Peach Aphid). Intrinsic Activity
Test compounds prepared from 10,000 ppm DMSO stock solutions were applied by pipette into 24-well microtiter plates and mixed with sucrose solution. The plates were closed with a stretched Parafilm. A plastic stencil with 24 holes was placed onto the plate and infested pea seedlings were placed directly on the Parafilm. The infested plate was closed with a gel blotting paper and another plastic stencil and then turned upside down. The samples were assessed for mortality 5 days after infestation.
The following compounds gave an effect of at least 80% control at an application rate of 12.5 ppm: […]

Chilo suppressalis = assay: Example B1: Chilo suppressalis (striped rice stemborer), artificial diet, L2 larvae; details: 144 h, application rate of 200 ppm, 6 days after infestation, read-out: control in at least one of the three categories (mortality, anti-feedant effect, or growth inhibition)
Outline: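 Artificial diet was treated with aqueous test solutions made from 10,000 ppm DMSO stocks, dried, then infested with L2 larvae (6-8 per well). Mortality, anti-feeding effect and growth inhibition were scored against untreated samples 6 days after infestation, and control was counted when any category exceeded untreated.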

Myzus persicae [2] = assay: Example B5: Myzus persicae (green peach aphid), feeding/contact activity; details: 144 h, application rate of 200 ppm, 6 days after infestation
Procedure: Example B5: Myzus persicae (Green Peach Aphid):Feeding/Contact Activity
Sunflower leaf discs were placed onto agar in a 24-well microtiter plate and sprayed with aqueous test solutions prepared from 10,000 ppm DMSO stock solutions. After drying, the leaf discs were infested with an aphid population of mixed ages. The samples were assessed for mortality 6 days after infestation.

Plutella xylostella = assay: Example B8: Plutella xylostella (diamond back moth), artificial diet 24-well, eggs; details: 192 h, application rate of 200 ppm, 8 days after infestation, read-out: effect in at least one of the two categories (mortality or growth inhibition)
Outline: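 Artificial diet in 24-well plates treated with aqueous dilutions of DMSO stock (10,000 ppm stock) and dried, then infested with Plutella eggs. Mortality and growth inhibition scored versus untreated samples 8 days after infestation.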

Spodoptera littoralis = assay: Example B9: Spodoptera littoralis (Egyptian cotton leaf worm), cotton leaf discs, L1 larvae; details: foliar, 72 h, application rate of 200 ppm, 3 days after infestation, read-out: control in at least one of the three categories (mortality, anti-feedant effect, or growth inhibition)
Outline: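 Cotton leaf discs on agar sprayed with aqueous test solutions from 10,000 ppm DMSO stocks, dried, then infested with five L1 larvae. Mortality, anti-feeding and growth inhibition scored against untreated samples 3 days after infestation.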

Diabrotica balteata = assay: Example B2: Diabrotica balteata (corn root worm), maize sprouts, L2 larvae; details: 96 h, application rate of 200 ppm, 4 days after infestation, read-out: control in at least one of the two categories (mortality or growth inhibition)
Procedure: Example B2: Diabrotica balteata (Corn Root Worm)
Maize sprouts placed onto an agar layer in 24-well microtiter plates were treated with aqueous test solutions prepared from 10,000 ppm DMSO stock solutions by spraying. After drying, the plates were infested with L2 larvae (6 to 10 per well). The samples were assessed for mortality and growth inhibition in comparison to untreated samples 4 days after infestation.
The following compounds gave an effect of at least 80% control in at least one of the two categories (mortality or growth inhibition) at an application rate of 200 ppm: […]

Cc1cc(F)c(OS(C)(=O)=O)cc1NC(=O)N[C@@H](C)c1ncnn1-c1ncccn1 [Example P181, [2-fluoro-4-methyl-5-[[(1S)-1-(2-pyrimidin-2-yl-1,2,4-triazol-3-yl)ethyl]carbamoylamino]phenyl] methanesulfonate]
≥ 80%: mortality at 12.5 ppm (Myzus persicae [1]) | percent control (mortality, anti-feedant effect or growth inhibition) at 200 ppm (Chilo suppressalis) | mortality at 200 ppm (Myzus persicae [2])

C[C@H](NC(=O)Nc1cc(C(C)(C)C#N)c(Cl)cc1F)c1ncnn1-c1ncccn1 [Example P202, 1-[4-chloro-5-(1-cyano-1-methyl-ethyl)-2-fluoro-phenyl]-3-[(1S)-1-(2-pyrimidin-2-yl-1,2,4-triazol-3-yl)ethyl]urea]
≥ 80%: mortality at 12.5 ppm (Myzus persicae [1]) | percent effect (mortality or growth inhibition) at 200 ppm (Plutella xylostella) | percent control (mortality, anti-feedant effect or growth inhibition) at 200 ppm (Chilo suppressalis) | percent control (mortality, anti-feedant effect or growth inhibition) at 200 ppm (Spodoptera littoralis) | mortality at 200 ppm (Myzus persicae [2])

COc1ccc(COc2cc(NC(=O)N[C@@H](C)c3ncnn3-c3ncccn3)c(Cl)cc2Cl)cc1F [Example P168, 1-[2,4-dichloro-5-[(3-fluoro-4-methoxy-phenyl)methoxy]phenyl]-3-[(1S)-1-(2-pyrimidin-2-yl-1,2,4-triazol-3-yl)ethyl]urea]
≥ 80%: mortality at 200 ppm (Myzus persicae [2])

C[C@H](NC(=O)Nc1cc(C(F)(F)F)ncn1)c1ncnn1-c1ncccn1 [Example P32, 1-[(1S)-1-(2-pyrimidin-2-yl-1,2,4-triazol-3-yl)ethyl]-3-[6-(trifluoromethyl)pyrimidin-4-yl]urea]
≥ 80%: mortality at 200 ppm (Myzus persicae [2])

C[C@@H](c1ncnn1-c1ncccn1)N1COCN(c2cc(OC(F)(F)C(F)F)c(Cl)cc2Cl)C1=O [Example P137, 3-[2,4-dichloro-5-(1,1,2,2-tetrafluoroethoxy)phenyl]-5-[(1S)-1-(2-pyrimidin-2-yl-1,2,4-triazol-3-yl)ethyl]-1,3,5-oxadiazinan-4-one]
≥ 80%: mortality at 12.5 ppm (Myzus persicae [1]) | percent effect (mortality or growth inhibition) at 200 ppm (Plutella xylostella) | percent control (mortality, anti-feedant effect or growth inhibition) at 200 ppm (Chilo suppressalis) | percent control (mortality, anti-feedant effect or growth inhibition) at 200 ppm (Spodoptera littoralis) | percent control (mortality or growth inhibition) at 200 ppm (Diabrotica balteata) | mortality at 200 ppm (Myzus persicae [2])

C[C@H](NC(=O)Nc1cc(OCc2cccc(Br)n2)c(Cl)cc1Cl)c1ncnn1-c1ncccn1 [Example P145, 1-[5-[(6-bromo-2-pyridyl)methoxy]-2,4-dichloro-phenyl]-3-[(1S)-1-(2-pyrimidin-2-yl-1,2,4-triazol-3-yl)ethyl]urea]
≥ 80%: mortality at 200 ppm (Myzus persicae [2])

C[C@H](NC(=O)Nc1cc(C(F)(F)F)cc(C(F)(F)F)n1)c1ncnn1-c1ncccn1 [Example P91, 1-[4,6-bis(trifluoromethyl)-2-pyridyl]-3-[(1S)-1-(2-pyrimidin-2-yl-1,2,4-triazol-3-yl)ethyl]urea]
≥ 80%: mortality at 200 ppm (Myzus persicae [2])

C[C@H](NC(=O)Nc1cc2c(cc1Cl)C(=O)N(C)C2=O)c1ncnn1-c1ncccn1 [Example P207, 1-(6-chloro-2-methyl-1,3-dioxo-isoindolin-5-yl)-3-[(1S)-1-(2-pyrimidin-2-yl-1,2,4-triazol-3-yl)ethyl]urea]
≥ 80%: mortality at 200 ppm (Myzus persicae [2])

C[C@H](NC(=O)Nc1cc(OC(F)(F)F)c(Cl)cc1F)c1ncnn1-c1ncccn1 [Example P214, 1-[4-chloro-2-fluoro-5-(trifluoromethoxy)phenyl]-3-[(1S)-1-(2-pyrimidin-2-yl-1,2,4-triazol-3-yl)ethyl]urea]
≥ 80%: mortality at 12.5 ppm (Myzus persicae [1]) | percent effect (mortality or growth inhibition) at 200 ppm (Plutella xylostella) | percent control (mortality, anti-feedant effect or growth inhibition) at 200 ppm (Chilo suppressalis) | percent control (mortality, anti-feedant effect or growth inhibition) at 200 ppm (Spodoptera littoralis) | percent control (mortality or growth inhibition) at 200 ppm (Diabrotica balteata)

CC(C)Oc1cc(NC(=O)N[C@@H](C)c2ncnn2-c2ncccn2)c(Cl)cc1Cl [Example P236, 1-(2,4-dichloro-5-isopropoxy-phenyl)-3-[(1S)-1-(2-pyrimidin-2-yl-1,2,4-triazol-3-yl)ethyl]urea]
≥ 80%: mortality at 12.5 ppm (Myzus persicae [1]) | percent effect (mortality or growth inhibition) at 200 ppm (Plutella xylostella) | percent control (mortality, anti-feedant effect or growth inhibition) at 200 ppm (Chilo suppressalis) | percent control (mortality, anti-feedant effect or growth inhibition) at 200 ppm (Spodoptera littoralis) | percent control (mortality or growth inhibition) at 200 ppm (Diabrotica balteata)

CC(NC(=O)Nc1cc(OC(F)(F)C(F)F)c(Cl)cc1Cl)c1nccnc1-c1ncccn1 (centres unmarked) [Example P238, 1-[2,4-dichloro-5-(1,1,2,2-tetrafluoroethoxy)phenyl]-3-[1-(3-pyrimidin-2-ylpyrazin-2-yl)ethyl]urea]
≥ 80%: mortality at 12.5 ppm (Myzus persicae [1]) | percent effect (mortality or growth inhibition) at 200 ppm (Plutella xylostella) | percent control (mortality, anti-feedant effect or growth inhibition) at 200 ppm (Chilo suppressalis) | percent control (mortality, anti-feedant effect or growth inhibition) at 200 ppm (Spodoptera littoralis) | percent control (mortality or growth inhibition) at 200 ppm (Diabrotica balteata)

C[C@H](NC(=O)Nc1ccnn1-c1ccc(Cl)cn1)c1ncnn1-c1ncccn1 [Example P17, 1-[2-(5-chloro-2-pyridyl)pyrazol-3-yl]-3-[(1S)-1-(2-pyrimidin-2-yl-1,2,4-triazol-3-yl)ethyl]urea]
≥ 80%: mortality at 200 ppm (Myzus persicae [2])

C[C@H](NC(=O)Nc1cc(OC(F)(F)C(F)C(F)(F)F)c(Cl)cc1F)c1ncnn1-c1ncccn1 (stereo partly drawn) [Example P215, 1-[4-chloro-2-fluoro-5-(1,1,2,3,3,3-hexafluoropropoxy)phenyl]-3-[(1S)-1-(2-pyrimidin-2-yl-1,2,4-triazol-3-yl)ethyl]urea]
≥ 80%: mortality at 12.5 ppm (Myzus persicae [1]) | percent effect (mortality or growth inhibition) at 200 ppm (Plutella xylostella) | percent control (mortality, anti-feedant effect or growth inhibition) at 200 ppm (Chilo suppressalis) | percent control (mortality, anti-feedant effect or growth inhibition) at 200 ppm (Spodoptera littoralis) | percent control (mortality or growth inhibition) at 200 ppm (Diabrotica balteata)

C[C@H](NC(=O)Nc1ccc(Cl)c(OC(F)(F)C(F)F)c1)c1ncnn1-c1ncccn1 [Example P35, 1-[4-chloro-3-(1,1,2,2-tetrafluoroethoxy)phenyl]-3-[(1S)-1-(2-pyrimidin-2-yl-1,2,4-triazol-3-yl)ethyl]urea]
≥ 80%: mortality at 12.5 ppm (Myzus persicae [1]) | percent effect (mortality or growth inhibition) at 200 ppm (Plutella xylostella) | percent control (mortality, anti-feedant effect or growth inhibition) at 200 ppm (Chilo suppressalis) | percent control (mortality, anti-feedant effect or growth inhibition) at 200 ppm (Spodoptera littoralis) | percent control (mortality or growth inhibition) at 200 ppm (Diabrotica balteata)

COc1cc(Cl)c(NC(=O)N[C@@H](C)c2ncnn2-c2ncccn2)cc1Cl [Example P204, 1-(2,5-dichloro-4-methoxy-phenyl)-3-[(1S)-1-(2-pyrimidin-2-yl-1,2,4-triazol-3-yl)ethyl]urea]
≥ 80%: mortality at 200 ppm (Myzus persicae [2])

C[C@H](NC(=O)Nc1cc(OC(F)F)c(Cl)cc1Cl)c1ncnn1-c1ncccn1 [Example P272, 1-[2,4-dichloro-5-(difluoromethoxy)phenyl]-3-[(1S)-1-(2-pyrimidin-2-yl-1,2,4-triazol-3-yl)ethyl]urea]
≥ 80%: mortality at 12.5 ppm (Myzus persicae [1]) | percent effect (mortality or growth inhibition) at 200 ppm (Plutella xylostella) | percent control (mortality, anti-feedant effect or growth inhibition) at 200 ppm (Chilo suppressalis) | percent control (mortality, anti-feedant effect or growth inhibition) at 200 ppm (Spodoptera littoralis) | percent control (mortality or growth inhibition) at 200 ppm (Diabrotica balteata)

C[C@H](NC(=O)Nc1cc(C(F)(F)F)n(C)n1)c1ncnn1-c1ncccn1 [Example P108, 1-[1-methyl-5-(trifluoromethyl)pyrazol-3-yl]-3-[(1S)-1-(2-pyrimidin-2-yl-1,2,4-triazol-3-yl)ethyl]urea]
≥ 80%: mortality at 200 ppm (Myzus persicae [2])

CC(NC(=O)Nc1cc(OC(F)(F)C(F)F)c(Cl)cc1Cl)c1ncnn1-c1ncccn1 (centres unmarked) [Example P177, 1-[2,4-dichloro-5-(1,1,2,2-tetrafluoroethoxy)phenyl]-3-[1-(2-pyrimidin-2-yl-1,2,4-triazol-3-yl)ethyl]urea]
≥ 80%: mortality at 12.5 ppm (Myzus persicae [1]) | percent effect (mortality or growth inhibition) at 200 ppm (Plutella xylostella) | percent control (mortality, anti-feedant effect or growth inhibition) at 200 ppm (Chilo suppressalis) | percent control (mortality, anti-feedant effect or growth inhibition) at 200 ppm (Spodoptera littoralis) | percent control (mortality or growth inhibition) at 200 ppm (Diabrotica balteata)

C[C@H](NC(=O)Nc1cc(C(F)(F)F)c(Cl)cc1Br)c1ncnn1-c1ncccn1 [Example P48, 1-[2-bromo-4-chloro-5-(trifluoromethyl)phenyl]-3-[(1S)-1-(2-pyrimidin-2-yl-1,2,4-triazol-3-yl)ethyl]urea]
≥ 80%: mortality at 12.5 ppm (Myzus persicae [1]) | percent effect (mortality or growth inhibition) at 200 ppm (Plutella xylostella) | percent control (mortality, anti-feedant effect or growth inhibition) at 200 ppm (Chilo suppressalis) | percent control (mortality, anti-feedant effect or growth inhibition) at 200 ppm (Spodoptera littoralis) | percent control (mortality or growth inhibition) at 200 ppm (Diabrotica balteata)
